ChEMBL document CHEMBL3885881, “DrugMatrix”

Species: Rattus norvegicus
Assay: DrugMatrix - Regimen: Daily Repeat
Assay type: toxicity, organism-based, Sprague-Dawley
Design: regimen Daily Repeat, gender Male, age 6-8 weeks
Conditions: in vivo, po, route oral GAVAGE, vehicle 100 % WATER; for ABSOLUTE BASOPHIL / ABSOLUTE EOSINOPHIL / ABSOLUTE LYMPHOCYTE / ABSOLUTE MONOCYTE / ABSOLUTE SEGMENTED NEUTROPHIL / BASOPHIL / EOSINOPHIL / ERYTHROCYTE COUNT / HEMATOCRIT / HEMOGLOBIN / LEUKOCYTE COUNT / LYMPHOCYTE / MEAN CORPUSCULAR HEMOGLOBIN / MEAN CORPUSCULAR HEMOGLOBIN CONCENTRATION / MEAN CORPUSCULAR VOLUME / MONOCYTE / NEUTROPHIL / NUCLEATED RED BLOOD CELLS / PLATELET COUNT: tissue Blood; for ALANINE AMINOTRANSFERASE / ALBUMIN / ALKALINE PHOSPHATASE / ASPARTATE AMINOTRANSFERASE / BLOOD UREA NITROGEN / CARBON DIOXIDE / CHLORIDE / CHOLESTEROL / CREATINE PHOSPHOKINASE / CREATININE / GLUCOSE / LACTATE DEHYDROGENASE / LIPASE / PHOSPHORUS / POTASSIUM / SODIUM / TOTAL BILIRUBIN / TOTAL PROTEIN / URIC ACID: tissue Plasma
[1] = 13 mg/kg, 72 h, dose level Low, time 3 day
[2] = 13 mg/kg, 120 h, dose level Low, time 5 day
[3] = 300 mg/kg, 72 h, dose level High, time 3 day
[4] = 300 mg/kg, 120 h, dose level High, time 5 day

## OC(CCCN1CCCCC1)(c1ccccc1)c1ccccc1 [DIPHENIDOL]
[1]
  ABSOLUTE BASOPHIL: 0 CELLS/uL
  ABSOLUTE EOSINOPHIL: 54.67 CELLS/uL
  ABSOLUTE LYMPHOCYTE: 13934 CELLS/uL
  ABSOLUTE MONOCYTE: 204 CELLS/uL
  ABSOLUTE SEGMENTED NEUTROPHIL: 740.67 CELLS/uL
  BASOPHIL: 0%
  EOSINOPHIL: 0.33%
  ERYTHROCYTE COUNT: 5.67 x10E6/uL
  HEMATOCRIT: 36.33%
  HEMOGLOBIN: 14.43 G/DL
  LEUKOCYTE COUNT: 14.93 x10E3/uL
  LYMPHOCYTE: 93.33%
  MEAN CORPUSCULAR HEMOGLOBIN: 25.47 pg
  MEAN CORPUSCULAR HEMOGLOBIN CONCENTRATION: 39.7 G/DL
  MEAN CORPUSCULAR VOLUME: 64.07 fL
  MONOCYTE: 1.33%
  NEUTROPHIL: 5%
  NUCLEATED RED BLOOD CELLS: 0 /100WBC
  PLATELET COUNT: 1276.67 x10E3/uL
  ALANINE AMINOTRANSFERASE: 58.33 u/L
  ALBUMIN: 4.23 G/DL
  ALKALINE PHOSPHATASE: 408.67 u/L
  ASPARTATE AMINOTRANSFERASE: 99.33 u/L
  BLOOD UREA NITROGEN: 17.33 mg/dL
  CARBON DIOXIDE: 25 mmol/L
  CHLORIDE: 102.33 MEQ/L
  CHOLESTEROL: 72 mg/dL
  CREATINE PHOSPHOKINASE: 574 u/L
  CREATININE: 0.29 mg/dL
  GLUCOSE: 169.33 mg/dL
  LACTATE DEHYDROGENASE: 402.67 u/L
  LIPASE: 9.67 u/L
  PHOSPHORUS: 13.97 mg/dL
  POTASSIUM: 7.15 MEQ/L
  SODIUM: 146.43 MEQ/L
  TOTAL BILIRUBIN: 0.2 mg/dL
  TOTAL PROTEIN: 5.77 G/DL
  URIC ACID: 3.3 mg/dL
[2]
  ABSOLUTE BASOPHIL: 0 CELLS/uL
  ABSOLUTE EOSINOPHIL: 69 CELLS/uL
  ABSOLUTE LYMPHOCYTE: 13769 CELLS/uL
  ABSOLUTE MONOCYTE: 0 CELLS/uL
  ABSOLUTE SEGMENTED NEUTROPHIL: 1595.33 CELLS/uL
  BASOPHIL: 0%
  EOSINOPHIL: 0.33%
  ERYTHROCYTE COUNT: 5.45 x10E6/uL
  HEMATOCRIT: 34.73%
  HEMOGLOBIN: 13.73 G/DL
  LEUKOCYTE COUNT: 15.43 x10E3/uL
  LYMPHOCYTE: 89.67%
  MEAN CORPUSCULAR HEMOGLOBIN: 25.2 pg
  MEAN CORPUSCULAR HEMOGLOBIN CONCENTRATION: 39.53 G/DL
  MEAN CORPUSCULAR VOLUME: 63.8 fL
  MONOCYTE: 0%
  NEUTROPHIL: 10%
  NUCLEATED RED BLOOD CELLS: 0 /100WBC
  PLATELET COUNT: 1177.33 x10E3/uL
  ALANINE AMINOTRANSFERASE: 49 u/L
  ALBUMIN: 4.23 G/DL
  ALKALINE PHOSPHATASE: 358.67 u/L
  ASPARTATE AMINOTRANSFERASE: 78 u/L
  BLOOD UREA NITROGEN: 18.67 mg/dL
  CARBON DIOXIDE: 28 mmol/L
  CHLORIDE: 101.67 MEQ/L
  CHOLESTEROL: 68.67 mg/dL
  CREATINE PHOSPHOKINASE: 194.33 u/L
  CREATININE: 0.17 mg/dL
  GLUCOSE: 148.33 mg/dL
  LACTATE DEHYDROGENASE: 83.67 u/L
  LIPASE: 9 u/L
  PHOSPHORUS: 12.13 mg/dL
  POTASSIUM: 6.32 MEQ/L
  SODIUM: 146.57 MEQ/L
  TOTAL BILIRUBIN: 0.17 mg/dL
  TOTAL PROTEIN: 5.97 G/DL
  URIC ACID: 1.13 mg/dL
[3]
  ABSOLUTE BASOPHIL: 0 CELLS/uL
  ABSOLUTE EOSINOPHIL: 58 CELLS/uL
  ABSOLUTE LYMPHOCYTE: 16577.33 CELLS/uL
  ABSOLUTE MONOCYTE: 58 CELLS/uL
  ABSOLUTE SEGMENTED NEUTROPHIL: 1540 CELLS/uL
  BASOPHIL: 0%
  EOSINOPHIL: 0.33%
  ERYTHROCYTE COUNT: 5.58 x10E6/uL
  HEMATOCRIT: 35.57%
  HEMOGLOBIN: 14.3 G/DL
  LEUKOCYTE COUNT: 18.23 x10E3/uL
  LYMPHOCYTE: 91%
  MEAN CORPUSCULAR HEMOGLOBIN: 25.63 pg
  MEAN CORPUSCULAR HEMOGLOBIN CONCENTRATION: 40.17 G/DL
  MEAN CORPUSCULAR VOLUME: 63.8 fL
  MONOCYTE: 0.33%
  NEUTROPHIL: 8.33%
  NUCLEATED RED BLOOD CELLS: 0 /100WBC
  PLATELET COUNT: 1352.67 x10E3/uL
  ALANINE AMINOTRANSFERASE: 52 u/L
  ALBUMIN: 4.3 G/DL
  ALKALINE PHOSPHATASE: 318.33 u/L
  ASPARTATE AMINOTRANSFERASE: 74 u/L
  BLOOD UREA NITROGEN: 15.67 mg/dL
  CARBON DIOXIDE: 24.67 mmol/L
  CHLORIDE: 103.33 MEQ/L
  CHOLESTEROL: 80.33 mg/dL
  CREATINE PHOSPHOKINASE: 184 u/L
  CREATININE: 0.24 mg/dL
  GLUCOSE: 156.67 mg/dL
  LACTATE DEHYDROGENASE: 139.67 u/L
  LIPASE: 9 u/L
  PHOSPHORUS: 13.97 mg/dL
  POTASSIUM: 7.22 MEQ/L
  SODIUM: 146.87 MEQ/L
  TOTAL BILIRUBIN: 0.13 mg/dL
  TOTAL PROTEIN: 6.27 G/DL
  URIC ACID: 1.77 mg/dL
[4]
  ABSOLUTE BASOPHIL: 0 CELLS/uL
  ABSOLUTE EOSINOPHIL: 44 CELLS/uL
  ABSOLUTE LYMPHOCYTE: 14983.33 CELLS/uL
  ABSOLUTE MONOCYTE: 56.33 CELLS/uL
  ABSOLUTE SEGMENTED NEUTROPHIL: 783 CELLS/uL
  BASOPHIL: 0%
  EOSINOPHIL: 0.33%
  ERYTHROCYTE COUNT: 5.89 x10E6/uL
  HEMATOCRIT: 35.8%
  HEMOGLOBIN: 14.47 G/DL
  LEUKOCYTE COUNT: 15.87 x10E3/uL
  LYMPHOCYTE: 94.33%
  MEAN CORPUSCULAR HEMOGLOBIN: 24.63 pg
  MEAN CORPUSCULAR HEMOGLOBIN CONCENTRATION: 40.43 G/DL
  MEAN CORPUSCULAR VOLUME: 60.97 fL
  MONOCYTE: 0.33%
  NEUTROPHIL: 5%
  NUCLEATED RED BLOOD CELLS: 0.33 /100WBC
  PLATELET COUNT: 1311 x10E3/uL
  ALANINE AMINOTRANSFERASE: 67.67 u/L
  ALBUMIN: 4.47 G/DL
  ALKALINE PHOSPHATASE: 383 u/L
  ASPARTATE AMINOTRANSFERASE: 106.33 u/L
  BLOOD UREA NITROGEN: 14.33 mg/dL
  CARBON DIOXIDE: 23 mmol/L
  CHLORIDE: 101 MEQ/L
  CHOLESTEROL: 53.67 mg/dL
  CREATINE PHOSPHOKINASE: 291 u/L
  CREATININE: 0.27 mg/dL
  GLUCOSE: 161 mg/dL
  LACTATE DEHYDROGENASE: 445 u/L
  LIPASE: 11 u/L
  PHOSPHORUS: 14.9 mg/dL
  POTASSIUM: 6.65 MEQ/L
  SODIUM: 146.5 MEQ/L
  TOTAL BILIRUBIN: 0.1 mg/dL
  TOTAL PROTEIN: 6.2 G/DL
  URIC ACID: 2.83 mg/dL
